Data on 72 compounds can be found in PubChem BioAssay AID179 (DTP/NCI, 2004).

Each structure is given as a SMILES string. Activity calls are given as the source filed them.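 How the source made its calls: active means compounds giving half or more protection of infected cells from virus-caused growth loss, again on retest; inactive means the rest.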 Where a SMILES comes first, the peptide text is derived from it. [ ]: non-standard residue; d: D form. Ac5c = NC1(C(=O)O)CCCC1

For this assay, the system named is CEM cells HIV-1 protection, formazan growth assay. The experiment in a line: NCI AIDS Antiviral Assay. The conditions noted are these: for IC50: measured here: growth of uninfected CEM cells. In a few lines: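 CEM (human) cells, HIV-1 infected vs uninfected, 5-point dosing, formazan growth read-out. Retest threshold 50% protection.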

Turning to `Cc1cccc(NC(=O)c2cc3cc(N=Nc4ccc(Br)cc4)ccc3oc2=O)c1`, the result was inactive. As for `COc1cc2c(cc1OC)C1CC(=O)C3=C(CCCC3)N1CC2` (stereo not given), the EC50 was > 200 µM and the IC50 is 91.2 µM. As for `N#Cc1c(=O)c2ccccc2n2c1[nH]c1ccccc12`, the EC50 is > 200 µM and the IC50 stood at 77.6 µM. The corresponding values for `Cc1[nH]nc(-c2ccon2)c1N=O` are > 200 µM and 8.91 µM. As for `COC1=NS(=O)(=O)C2CCCCCCC2O1` (stereo not given), the EC50 is > 1000 µM and the IC50 is > 1000 µM. Take `N/C(=N\C(O)C(Cl)(Cl)Cl)SCNC(=O)NCS/C(N)=N/C(O)C(Cl)(Cl)Cl` (stereo not given): the EC50 was > 158 µM and the IC50 is 126 µM. In the same order, the values of `Cc1cc(C)nc(NS(=O)(=O)c2ccc(Nc3c4ccc(Cl)cc4nc4c(C(=O)NCCN(C)C)cccc34)cc2)n1` are > 214 µM and 89.1 µM. The corresponding values for `CCOC(=O)c1nc2ccc(C(F)(F)F)cc2nc1Oc1cc(OC)cc(OC)c1` are > 200 µM and > 200 µM. In the same order, the values of `COc1ccc(C2CCC(=O)CC2(O)C(=O)O)cc1` (stereo not given) are > 251 µM and > 251 µM.

As to `O=C(O)CSC(=S)N1CCCC1`, the EC50 was > 200 µM and the IC50 came to 102 µM. In the case of `CC(C)C12OC1CC13OC1C1OC1C1OC132` (stereo not given), the EC50 is > 200 µM and the IC50 is > 200 µM. As for `O=c1n(Cl)c(=O)n(Cl)c(=O)n1Cl`, the outcome was inactive. In the case of `[Cl][Ni].[NH-]C(Cc1c[nH]cn1)C(=O)O` (stereo not given), the EC50 was > 100 µM and the IC50 is > 100 µM. Take `CC(=O)OC(C#N)CC(C)(C)/[N+]([O-])=[N+](\[O-])C(C)(C)CC(C#N)OC(C)=O` (stereo not given): the EC50 is > 20 µM and the IC50 amounted to 3.63 µM. The corresponding values for `C[C@]12CCCO[C@@H]1CC[C@@H]1[C@@H]2CC[C@]2(C)[C@@H](O)CC[C@@H]12` are > 200 µM and > 200 µM. In the same order, the values of `C=CC(CCCCCCCC(=O)O)S(=O)(=O)O` (stereo not given) are > 200 µM and > 200 µM. On to `CCOC(=O)CSc1nc(-c2ccccc2)c(C#N)c(=O)[nH]1`, for which the result was inactive. As for `O=[N+]([O-])c1cccc(C2=NOC(C3CCCCC3)C2)c1` (stereo not given), the EC50 was > 36.3 µM and the IC50 was > 36.3 µM. As for `C[n+]1c(-c2ccc(/C=N/NC(=O)c3ccc(C(=O)N/N=C/c4ccc(-c5cn6ccccc6[n+]5C)cc4)c(O)c3O)cc2)cn2ccccc21`, the EC50 is 8.32 µM and the IC50 came out at 8.71 µM. Regarding `NC(CCOCCP(=O)(O)CCC1C=CC=CC1)C(=O)O` (stereo not given), the EC50 is > 200 µM and the IC50 was > 200 µM. As to `COC(=O)c1cc(C(=CC(=O)OC(C)(C)C)c2cc(Cl)c(OC)c(C(=O)OC)c2)cc(Cl)c1OC`, the EC50 was > 100 µM and the IC50 is 14.1 µM.

Consider `COC1(OC)CC2C(=O)N(Cc3ccccc3)C1C=C2S(=O)(=O)c1ccccc1` (stereo not given), for which the outcome was inactive. Still for that read-out and setting: with `O=C(CCC(=O)Nc1cccc(Cl)c1)CC(=O)c1ccc(F)cc1` the entry was “inactive”.

Take `CCOc1ccc(NCC(=O)N2CC(=O)Nc3cc(C)c(C)cc32)cc1`: the EC50 is > 20.4 µM and the IC50 was > 20.4 µM. As for `COc1ccc(/C=C2\CN(C)C/C(=C\c3ccc(OC)cc3)C2=O)cc1`, the EC50 is > 200 µM and the IC50 was 85.1 µM. In the case of `O=C(O)C1=CN=C(C(=O)O)NN1`, the EC50 is > 1150 µM and the IC50 was 617 µM.

As for `COc1ccc2c(c1)c(=O)c1ccccc1n2/C=C/C(=O)O`, the EC50 is > 617 µM and the IC50 is 105 µM. In the case of `CC(=O)C1CCN(c2ccccc2)C1` (stereo not given), the outcome was inactive. In the case of `C[CH2][Sn]([CH2]C)([O]C(=O)c1ccc(OC)c(OC)c1OC)[O]C(=O)c1ccc(OC)c(OC)c1OC`, the EC50 is > 83.2 µM and the IC50 was determined as 7.59 µM.

As for `COC1=C(OC)C(O)(c2ccccc2)C1=O` (stereo not given), the outcome was inactive. Take `COc1cc(CC2C(=O)OCC2C(=O)c2ccc3c(c2)OCO3)cc(OC)c1OC` (stereo not given): the EC50 was > 40.7 µM and the IC50 is > 40.7 µM.

On to `CC1=C(C#N)C(C#N)(C#N)C(NN(C)C)C1` (stereo not given), for which the EC50 was > 200 µM and the IC50 is 3.8 µM. As to `CCOC(=O)CN1CC(C2=C(O)CN(CC(=O)OCC)C2=O)=CC1=O`, the outcome was inactive. With `COC(=O)C1(NC(=O)C(C)NC(=O)C(CCCCN)NC(=O)C(CC(C)C)NC(C)=O)CCCC1` (stereo not given) (Ac-LKA[Ac5c]-OMe; configuration not given here), the EC50 is > 200 µM and the IC50 is > 200 µM. Consider `S=C(N/N=C\C(=N/NC(=S)N1CCCCC1)c1ccccc1)N1CCCCC1`, for which the EC50 was > 200 µM and the IC50 is 3.8 µM. The corresponding values for `CCCCCCCCCCCC(=O)OCC(C[As](=O)(O)O)OC(=O)CCCCCCCCCCC` (stereo not given) are > 200 µM and 1.82 µM.

With `O=C1NC2c3c(I)sc(I)c3C(O)C2O1` (stereo not given), the EC50 is > 200 µM and the IC50 was determined as 141 µM. In the same order, the values of `O=C(CCl)N1CCN(C(c2ccccc2)c2ccccc2)CC1` are > 79.4 µM and 3.72 µM.

For the compound `N#C/C(=C\c1cccc([N+](=O)[O-])c1)C(=O)c1ccccc1`, the EC50 was > 79.4 µM and the IC50 amounted to 40.7 µM. The corresponding values for `Oc1ccc(C(O)(c2ccccc2)c2ccccc2)cc1` are > 67.6 µM and 41.7 µM. In the same order, the values of `O=C(O)/C=C\C(=O)Nc1ccc(SSc2ccc(NC(=O)/C=C\C(=O)O)cc2)cc1` are 182 µM and > 200 µM. For `O=C1CC(C(CC(=O)c2ccccc2)c2ccccc2)C(=O)c2ccccc2N1` (stereo not given), the EC50 was > 200 µM and the IC50 worked out at 12.6 µM. Turning to `Cc1ccc(O)c(C(c2cc(C)ccc2O)c2cc([N+](=O)[O-])ccc2O)c1`, the outcome was inactive.

In the case of `CCOC(OC1=C(C#N)CCCC1)C(CC)[Se]c1ccccc1` (stereo not given), the EC50 is > 132 µM and the IC50 worked out at 67.6 µM.

For the compound `CC1CCC2(OC2(C)C)C(=O)C1` (stereo not given), the EC50 was > 200 µM and the IC50 was > 200 µM. With `N#CC(C(=O)/C(=N\Nc1nc(=S)[nH]n1N)C(C#N)c1ccc(Cl)cc1)c1ccc(Cl)cc1` (stereo not given), the EC50 is > 53.7 µM and the IC50 was > 53.7 µM.

For `CCCCCCCC(=O)c1ccc(O)c(C(=O)Nc2cccc(C(F)(F)F)c2)c1`, the EC50 is > 12.9 µM and the IC50 came to 0.145 µM.

As to `O=c1[nH]c(=O)n(C2CC(O)C(CO)O2)cc1OCCCc1ccccc1` (stereo not given), the EC50 was > 200 µM and the IC50 is > 200 µM. On to `Cc1nn(C(=O)c2ccccc2O)c2c1C(c1ccc(O)cc1O)SC(N)=N2` (stereo not given), for which the EC50 is > 2 µM and the IC50 worked out at 0.331 µM.

For `CN1CCN(C2=C(Cl)C3(OCCS3)C(F)(F)C2(F)F)CC1` (stereo not given), the EC50 was > 132 µM and the IC50 turned out to be 45.7 µM.

Take `O=C1OC(c2ccccc2)=C2CCC3CCCCN1C23` (stereo not given): the EC50 is > 132 µM and the IC50 is > 132 µM. For `CN(CCO)c1nc(N)cc(=O)[nH]1`, the EC50 was > 1350 µM and the IC50 was > 1350 µM. Take `CC1(C)OC2C(O)CN3CCS[C@H]3C2O1` (stereo not given in full): the EC50 is > 200 µM and the IC50 was > 200 µM. For `CC(=O)O[C@@H]1[C@H](OC2CCCCC2(c2ccccc2)c2ccccc2)O[N+]([O-])=CC12CCCCC2` (stereo not given in full), the EC50 was > 200 µM and the IC50 worked out at 2.69 µM. In the same order, the values of `CC(C)CC(N)C(=O)NC(CC(=O)O)C(=O)NC(CCCCN)C(=O)NC(C)C(=O)NC(CO)C(=O)NC(Cc1ccc(O)cc1)C(=O)NC(CO)C(=O)NC(C(=O)NC(CC(N)=O)C(=O)O)C(C)O` (stereo not given) (H-LDKASYSTN-OH; configuration not given here) are > 50.1 µM and > 50.1 µM. The corresponding values for `C=C1CN(S(=O)(=O)c2ccc(C)cc2)CCCN(CCC(C)C)CCCN(S(=O)(=O)c2ccc(C)cc2)C1` are > 200 µM and 1.02 µM. In the same order, the values of `Nc1nccc2c1ncn2C1OC(CO)C(O)C1O` (stereo not given) are > 933 µM and 30.2 µM.

Turning to `O=C(NC(=O)c1ccccc1O)c1ccccc1`, the EC50 was > 282 µM and the IC50 was > 282 µM. As for `CC(=O)Oc1cc2oc(=O)cc(C)c2cc1OC(C)=O`, the outcome was inactive. On the same count and under the same terms, with `CN(/N=C\c1ccnc2ccccc12)c1ccccc1` the entry was “inactive”.

Regarding `O=S(=O)(O)C1CC2NC3C4CCCC(S(=O)(=O)O)C4C(Nc4ccccc4)CC3N(c3ccccc3)C2CC1Nc1ccccc1` (stereo not given), the EC50 was 56.2 µM and the IC50 is > 100 µM. In the same order, the values of `CC1(C)CC(=O)C2=C(C1)OC1(CC2c2ccc(Cl)cc2)CC(c2ccc(Cl)cc2)C2=C(CC(C)(C)CC2=O)O1` (stereo not given) are > 100 µM and 15.1 µM.

In the case of `O=c1n(-c2ccccc2)c(=O)n2n1C1C=CC2CCCCCC1`, the EC50 was > 200 µM and the IC50 was > 200 µM.

Consider `C=CCc1oc(C)nc1CCCC`, for which the EC50 is > 200 µM and the IC50 is > 200 µM. `Ic1nc(-c2ccccc2)[nH]c1I`: the outcome was inactive. With `O=[N+]([O-])c1ccccc1Sc1ccccc1[N+](=O)[O-]`, the EC50 is > 7.94 µM.

For the compound `CC1=NN2C(=O)C(C)SC2=NC(C)(C)C1` (stereo not given), the EC50 was > 1120 µM and the IC50 was > 1120 µM.

`CC12CC3(O)OC(O1)C1(COC(=O)c4ccccc4)C3C[C@@]21OC1OC(COC(=O)c2cc(O)c(O)c(O)c2)C(O)C(O)C1O` (stereo not given in full): the outcome was inactive. For `CCCCCCCCCCCCC(F)C(=O)OCC1OC(n2cc(C)c(=O)[nH]c2=O)CC1N=[N+]=[N-]` (stereo not given), the EC50 was 0.0123 µM and the IC50 worked out at 102 µM. The corresponding values for `Cc1cc(O)c2c(c1O)C(=O)C13C(=C2O)C(=O)C2C(O)C1C1C(O)C3C(=O)C3=C(O)c4c(O)cc(C)c(O)c4C(=O)C321` (stereo not given) are > 45.7 µM and 0.0977 µM. For the compound `CC(C)(O)c1cc2nc3ccccc3nc2n1CCO`, the EC50 is > 200 µM and the IC50 was > 200 µM. Take `NNC(=S)N1CCN(C(=S)NN)CC1`: the EC50 was > 200 µM and the IC50 stood at 15.1 µM.
